Experimental data taken from patent US4480118A, “Carboxylic acid ester and an insecticidal and/or acaricidal composition containing the same” (priority 1981, dated 1984).

What was measured:
Assay type in all cases: in vivo
housefly [1] = assay: Activity of oil spray against adult housefly (glass chamber); conditions: oil spray 0.5 ml, 10 minutes exposure; for mortality, House fly: observed on the following day, 1440 min
Protocol: (§1) 0.1 Part of each compound Nos. 10, 12, 15, 17, 18, 19, 22, 23 and 29 of this invention is dissolved in deodorized kerosene and made up to 100 parts with kerosene to obtain an oil spray.
(§2) Ten adult houseflies and ten adult female northern house mosquitos were released in a glass chamber, 70×70×70 cm in size. An oil spray preparation (0.5 ml) obtained in Preparation Example 1 was sprayed inside the chamber and the insects were exposed to the descending mist for 10 minutes, during which time the number of knocked-down insects was counted at predetermined time intervals to determine the 50% knockdown time (KT50). On the following day, the dead and alive insects were observed.

northern house mosquito [2] = assay: Mosquito coil knockdown of adult female northern house mosquitos
Protocol: Each 0.6 g of the present compounds Nos. 10, 16 and 27 is dissolved in 20 ml of methanol and uniformly mixed with 99.4 g of a carrier for mosquito coils (a mixture of Tabu powder, pyrethrum marc and wood powder in a proportion of 3:5:1) by thorough stirring. After evaporation of methanol and addition of 150 ml of water, the mixture is thoroughly kneaded, then molded, and dried to obtain a mosquito coil.
About 50 adult female northern house mosquitos were released into a glass chamber, 70×70×70 cm, and a battery-operated small fan (diameter of rotation of the vane: 13 cm) disposed in the cabinet was operated. A mosquito coil obtained in Preparation Example 6 was ignited at both ends and placed at the center of bottom of the chamber. After 20 minutes, the number of knocked down insects was counted.

northern house mosquito [3] = assay: Activity of oil spray against adult female northern house mosquito (glass chamber); conditions: for mortality, Northern house mosquito: in vivo, 24 h; for KT50 (50% knockdown time), Northern house mosquito: oil spray 0.5 ml, 10 minutes exposure
Protocol: as §1, §2

housefly [4] = assay: Insecticidal activity against housefly (Filter paper bait and contact method); conditions: Musca domestica; 500 ppm, 48 hours, adult female houseflies; read-out: Mortality
Protocol: Each 20 parts of the present compounds No. 1 to No. 29, 10 parts of an emulsifier (Sorpol 3005X; trademark for Toho Chemical Co.) and 70 parts of xylene are thoroughly mixed by stirring to obtain an emulsifiable concentrate of each compound.
A piece of filter paper, 5.5 cm in diameter, was laid on the bottom of a polyethylene cup of the identical inner diameter. An emulsifiable concentrate prepared in the same manner as in Preparation Example 2 was diluted with water. To the filter paper, was added dropwise 0.7 ml of the diluted sample (500 ppm in concentration). Sucrose (30 mg) was placed on the filter paper to serve as bait. Ten adult female houseflies were released into the cup, closed with a cover, and observed for the number of dead and alive insects after 48 hours to calculate the mortality (2 replications).

SMILES	KT50 (50% knockdown time), House fly (housefly [1]) [s]	mortality, House fly (housefly [1]) [%]	Percent knocked down insects after 20 minutes (northern house mosquito [2]) [%]	mortality, Northern house mosquito (northern house mosquito [3]) [%]	KT50 (50% knockdown time), Northern house mosquito (northern house mosquito [3]) [s]	mortality at 500 ppm (housefly [4]) [%]
C#CCC1=C(C)C(OC(=O)C2C(C)(C)C23Cc2ccccc2C3)CC1=O (centres unmarked) [Compound 10]	210	30	94	100	320	100
C=CCC1=C(C)C(OC(=O)C2C(C)(C)C23Cc2ccccc2C3)CC1=O (centres unmarked) [Compound 15]	250	20	90	95	300	100
C#CC(OC(=O)C1C(C)(C)C12Cc1ccc(F)cc1C2)C(C)=CCC (centres unmarked) [Compound 27]			10			100
